Data as given in publication PMC5428509, “Irreversible inhibition of BTK kinase by a novel highly selective inhibitor CHMFL-BTK-11 suppresses inflammatory response in rheumatoid arthritis model” (Scientific Reports, 2017).

Experiments:
Assay in all cases: biochemical
Design in all cases: KinomeScan competition binding panel (DiscoveRx), percent of control at 1 uM
Conditions in all cases: read-out: Percent Control
[1] = target: T1, ABL1(T315I)-phosphorylated (Homo sapiens, UniProt P00519, T315I)
T1 construct: phosphorylated
In short: (§1)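 KinomeScan technology used to profile binding across a panel of 456 kinases and mutants.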

BUB1 = BUB1 (Homo sapiens, UniProt O43683)
In short: as §1

CLK2 = CLK2 (Homo sapiens, UniProt P49760)
In short: as §1

CSF1R = CSF1R (Homo sapiens, UniProt P07333)
In short: as §1

DDR2 = DDR2 (Homo sapiens, UniProt Q16832)
In short: as §1

EGFR(L858R) = EGFR(L858R) (Homo sapiens, UniProt P00533, L858R)
In short: as §1

EGFR(S752-I759del) = EGFR(S752-I759del) (Homo sapiens, UniProt P00533, DEL752-759)
In short: as §1

ERK2 = target: T2, ERK2 (Homo sapiens, UniProt P28482)
T2 construct: gene MAPK1
In short: as §1

FLT3(ITD) = FLT3(ITD) (Homo sapiens, UniProt P36888, ITD)
In short: as §1

FYN = FYN (Homo sapiens, UniProt P06241)
In short: as §1

[2] = target: T3, JAK1(JH1domain-catalytic) (Homo sapiens, UniProt P23458)
T3 construct: JH1domain-catalytic
In short: as §1

KIT-autoinhibited = KIT-autoinhibited (Homo sapiens, UniProt P10721)
In short: as §1

LKB1 = target: T4, LKB1 (Homo sapiens, UniProt Q15831)
T4 construct: gene STK11
In short: as §1

LTK = LTK (Homo sapiens, UniProt P29376)
In short: as §1

MAP4K2 = MAP4K2 (Homo sapiens, UniProt Q12851)
In short: as §1

MAP4K4 = MAP4K4 (Homo sapiens, UniProt O95819)
In short: as §1

MAP4K5 = MAP4K5 (Homo sapiens, UniProt Q9Y4K4)
In short: as §1

MET(M1250T) = MET(M1250T) (Homo sapiens, UniProt P08581, M1250T)
In short: as §1

MKNK2 = MKNK2 (Homo sapiens, UniProt Q9HBH9)
In short: as §1

NIK = target: T5, NIK (Homo sapiens, UniProt Q99558)
T5 construct: gene MAP3K14
In short: as §1

PFTK1 = target: T6, PFTK1 (Homo sapiens, UniProt O94921)
T6 construct: gene CDK14
In short: as §1

PIK3CB = PIK3CB (Homo sapiens, UniProt P42338)
In short: as §1

RIOK1 = RIOK1 (Homo sapiens, UniProt Q9BRS2)
In short: as §1

S6K1 = target: T7, S6K1 (Homo sapiens, UniProt P23443)
T7 construct: gene RPS6KB1
In short: as §1

STK35 = STK35 (Homo sapiens, UniProt Q8TDR2)
In short: as §1

T4 sequence (Q15831 whole entry): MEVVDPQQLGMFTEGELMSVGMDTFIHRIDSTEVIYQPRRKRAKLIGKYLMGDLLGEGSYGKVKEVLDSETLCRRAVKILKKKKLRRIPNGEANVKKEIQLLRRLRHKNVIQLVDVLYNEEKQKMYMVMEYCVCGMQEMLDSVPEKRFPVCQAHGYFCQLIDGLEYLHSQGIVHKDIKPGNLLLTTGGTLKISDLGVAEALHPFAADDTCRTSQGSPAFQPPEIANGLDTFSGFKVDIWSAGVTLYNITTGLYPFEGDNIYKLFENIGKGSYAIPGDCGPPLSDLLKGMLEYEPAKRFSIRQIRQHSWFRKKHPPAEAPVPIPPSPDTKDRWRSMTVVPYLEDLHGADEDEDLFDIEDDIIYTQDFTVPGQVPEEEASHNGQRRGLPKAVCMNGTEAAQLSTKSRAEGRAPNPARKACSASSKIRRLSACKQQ
Chain of FYN (P06241 whole entry): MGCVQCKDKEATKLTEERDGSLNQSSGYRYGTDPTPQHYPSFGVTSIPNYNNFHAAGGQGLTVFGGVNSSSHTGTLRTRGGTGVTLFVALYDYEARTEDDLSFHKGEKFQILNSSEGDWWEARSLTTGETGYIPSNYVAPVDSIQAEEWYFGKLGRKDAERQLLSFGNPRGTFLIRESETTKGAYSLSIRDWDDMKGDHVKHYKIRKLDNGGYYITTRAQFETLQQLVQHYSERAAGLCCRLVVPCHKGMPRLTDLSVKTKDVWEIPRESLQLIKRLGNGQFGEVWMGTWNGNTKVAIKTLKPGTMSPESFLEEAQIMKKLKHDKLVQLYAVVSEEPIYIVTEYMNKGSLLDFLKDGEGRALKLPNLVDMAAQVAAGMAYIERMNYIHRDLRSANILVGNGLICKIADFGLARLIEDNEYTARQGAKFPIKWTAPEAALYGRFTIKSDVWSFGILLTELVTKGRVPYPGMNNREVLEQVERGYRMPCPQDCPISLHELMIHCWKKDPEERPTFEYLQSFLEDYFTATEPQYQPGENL
Chain of PIK3CB (P42338 whole entry): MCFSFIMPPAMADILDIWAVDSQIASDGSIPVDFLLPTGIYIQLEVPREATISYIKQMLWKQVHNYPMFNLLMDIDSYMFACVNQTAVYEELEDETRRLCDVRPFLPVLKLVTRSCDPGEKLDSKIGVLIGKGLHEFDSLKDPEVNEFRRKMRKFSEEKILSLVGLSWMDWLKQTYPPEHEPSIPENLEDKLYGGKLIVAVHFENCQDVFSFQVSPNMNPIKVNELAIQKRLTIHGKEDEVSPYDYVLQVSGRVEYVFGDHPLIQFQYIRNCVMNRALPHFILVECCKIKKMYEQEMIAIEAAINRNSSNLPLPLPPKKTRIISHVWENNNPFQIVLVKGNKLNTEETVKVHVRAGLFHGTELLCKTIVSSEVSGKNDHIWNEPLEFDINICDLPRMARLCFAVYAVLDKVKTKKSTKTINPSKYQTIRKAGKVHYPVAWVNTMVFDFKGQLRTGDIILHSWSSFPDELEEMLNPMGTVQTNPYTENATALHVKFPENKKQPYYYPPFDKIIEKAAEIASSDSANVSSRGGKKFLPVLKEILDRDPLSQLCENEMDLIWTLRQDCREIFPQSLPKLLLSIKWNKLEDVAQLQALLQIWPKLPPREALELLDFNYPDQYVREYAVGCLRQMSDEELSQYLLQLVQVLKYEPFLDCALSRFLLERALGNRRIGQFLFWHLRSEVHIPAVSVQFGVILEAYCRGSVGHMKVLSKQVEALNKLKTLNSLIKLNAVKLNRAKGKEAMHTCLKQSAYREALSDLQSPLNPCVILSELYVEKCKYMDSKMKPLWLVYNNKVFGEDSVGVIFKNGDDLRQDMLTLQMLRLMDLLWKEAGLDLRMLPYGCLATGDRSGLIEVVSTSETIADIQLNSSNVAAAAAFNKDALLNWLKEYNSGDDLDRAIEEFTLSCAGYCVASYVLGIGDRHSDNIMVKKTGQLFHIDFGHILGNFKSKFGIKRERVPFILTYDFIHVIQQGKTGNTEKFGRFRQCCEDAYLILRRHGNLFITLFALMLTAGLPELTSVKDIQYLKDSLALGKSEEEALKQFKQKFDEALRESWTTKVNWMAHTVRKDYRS
T6 sequence (O94921 whole entry): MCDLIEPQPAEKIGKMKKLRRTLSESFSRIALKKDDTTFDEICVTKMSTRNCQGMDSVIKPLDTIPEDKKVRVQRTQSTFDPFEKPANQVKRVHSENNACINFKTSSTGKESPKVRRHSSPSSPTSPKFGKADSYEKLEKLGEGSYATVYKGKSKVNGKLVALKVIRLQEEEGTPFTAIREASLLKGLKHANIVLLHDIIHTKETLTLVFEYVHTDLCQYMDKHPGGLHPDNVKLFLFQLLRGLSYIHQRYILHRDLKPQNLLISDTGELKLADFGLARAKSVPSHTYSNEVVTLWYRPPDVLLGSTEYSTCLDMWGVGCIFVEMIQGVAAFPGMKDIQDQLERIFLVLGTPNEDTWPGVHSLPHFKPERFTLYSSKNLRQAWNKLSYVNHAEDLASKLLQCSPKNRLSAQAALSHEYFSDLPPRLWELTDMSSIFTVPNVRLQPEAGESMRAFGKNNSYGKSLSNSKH
Chain of CLK2 (P49760 whole entry): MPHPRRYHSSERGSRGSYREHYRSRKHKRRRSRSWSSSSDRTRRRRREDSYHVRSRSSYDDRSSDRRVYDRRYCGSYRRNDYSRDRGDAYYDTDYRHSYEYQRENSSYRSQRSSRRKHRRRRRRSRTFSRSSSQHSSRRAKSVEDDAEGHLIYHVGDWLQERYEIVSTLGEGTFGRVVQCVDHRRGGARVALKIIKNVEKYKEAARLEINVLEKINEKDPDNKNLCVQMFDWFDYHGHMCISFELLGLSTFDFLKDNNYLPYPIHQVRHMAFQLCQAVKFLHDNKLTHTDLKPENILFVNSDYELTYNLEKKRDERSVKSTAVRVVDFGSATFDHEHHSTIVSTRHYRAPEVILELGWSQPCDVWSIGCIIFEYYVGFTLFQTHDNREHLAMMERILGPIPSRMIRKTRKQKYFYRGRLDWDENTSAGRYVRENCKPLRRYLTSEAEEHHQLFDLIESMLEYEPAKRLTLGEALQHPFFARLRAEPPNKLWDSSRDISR
Chain of RIOK1 (Q9BRS2 whole entry): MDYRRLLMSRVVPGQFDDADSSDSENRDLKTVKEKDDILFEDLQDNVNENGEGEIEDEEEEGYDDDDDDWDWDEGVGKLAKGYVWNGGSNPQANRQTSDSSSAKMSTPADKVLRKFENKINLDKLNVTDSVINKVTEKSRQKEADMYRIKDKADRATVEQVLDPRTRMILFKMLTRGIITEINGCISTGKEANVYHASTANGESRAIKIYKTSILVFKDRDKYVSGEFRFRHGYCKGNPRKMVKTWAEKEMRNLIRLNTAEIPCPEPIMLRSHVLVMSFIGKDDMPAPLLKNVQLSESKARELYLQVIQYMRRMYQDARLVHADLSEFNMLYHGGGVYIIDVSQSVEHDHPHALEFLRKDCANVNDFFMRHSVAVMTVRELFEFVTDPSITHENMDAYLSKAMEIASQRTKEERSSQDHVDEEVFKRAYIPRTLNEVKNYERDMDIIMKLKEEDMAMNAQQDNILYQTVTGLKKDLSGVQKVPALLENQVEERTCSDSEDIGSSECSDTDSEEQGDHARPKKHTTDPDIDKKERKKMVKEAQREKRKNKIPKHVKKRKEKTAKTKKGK
Chain of MET(M1250T) (P08581 whole entry M1250T): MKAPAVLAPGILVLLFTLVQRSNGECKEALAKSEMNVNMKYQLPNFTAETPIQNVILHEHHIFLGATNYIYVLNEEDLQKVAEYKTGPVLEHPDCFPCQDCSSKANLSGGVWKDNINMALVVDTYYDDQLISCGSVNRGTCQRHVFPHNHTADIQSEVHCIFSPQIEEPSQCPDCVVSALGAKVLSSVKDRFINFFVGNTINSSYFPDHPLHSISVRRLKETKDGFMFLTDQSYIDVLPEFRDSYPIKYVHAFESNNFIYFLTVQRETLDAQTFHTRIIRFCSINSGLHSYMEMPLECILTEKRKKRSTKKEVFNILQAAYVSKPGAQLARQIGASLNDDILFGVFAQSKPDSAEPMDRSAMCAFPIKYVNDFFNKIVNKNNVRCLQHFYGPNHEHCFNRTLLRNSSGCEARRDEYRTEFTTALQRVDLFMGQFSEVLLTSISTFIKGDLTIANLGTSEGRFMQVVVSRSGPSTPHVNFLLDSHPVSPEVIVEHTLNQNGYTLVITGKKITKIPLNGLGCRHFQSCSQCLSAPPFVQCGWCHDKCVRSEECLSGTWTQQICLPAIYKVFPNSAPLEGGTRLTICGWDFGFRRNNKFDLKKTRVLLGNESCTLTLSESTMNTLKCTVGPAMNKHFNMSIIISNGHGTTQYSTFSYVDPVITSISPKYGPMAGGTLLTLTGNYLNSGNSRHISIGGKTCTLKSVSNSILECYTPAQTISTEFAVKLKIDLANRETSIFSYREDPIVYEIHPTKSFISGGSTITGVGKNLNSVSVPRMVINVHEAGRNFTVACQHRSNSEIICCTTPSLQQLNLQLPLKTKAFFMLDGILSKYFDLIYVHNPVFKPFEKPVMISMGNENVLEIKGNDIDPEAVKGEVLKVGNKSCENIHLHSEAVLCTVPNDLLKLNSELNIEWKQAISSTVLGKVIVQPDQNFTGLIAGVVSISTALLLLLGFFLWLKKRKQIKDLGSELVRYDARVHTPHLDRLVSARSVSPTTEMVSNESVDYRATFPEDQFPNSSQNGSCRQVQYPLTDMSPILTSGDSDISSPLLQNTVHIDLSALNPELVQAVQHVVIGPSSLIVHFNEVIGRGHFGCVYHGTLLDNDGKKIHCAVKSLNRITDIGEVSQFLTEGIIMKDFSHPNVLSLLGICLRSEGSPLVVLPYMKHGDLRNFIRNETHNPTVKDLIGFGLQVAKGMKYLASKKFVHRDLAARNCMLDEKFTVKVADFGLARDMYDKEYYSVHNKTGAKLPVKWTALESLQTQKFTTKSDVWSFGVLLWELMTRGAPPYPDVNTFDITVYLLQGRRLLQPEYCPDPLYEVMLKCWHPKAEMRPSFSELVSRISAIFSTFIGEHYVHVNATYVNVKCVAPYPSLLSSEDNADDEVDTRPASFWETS

Compound: C=CC(=O)Nc1cc(-n2c(=O)ccc3cnc4ccc(-n5cccn5)cc4c32)ccc1C [CHMFL-BTK-11]
- remaining binding at 1 µM [1]: 100%
- remaining binding at 1 µM (BUB1): 83%
- remaining binding at 1 µM (CLK2): 100%
- remaining binding at 1 µM (CSF1R): 91%
- remaining binding at 1 µM (DDR2): 99%
- remaining binding at 1 µM (EGFR(L858R)): 70%
- remaining binding at 1 µM (EGFR(S752-I759del)): 58%
- remaining binding at 1 µM (ERK2): 100%
- remaining binding at 1 µM (FLT3(ITD)): 89%
- remaining binding at 1 µM (FYN): 99%
- remaining binding at 1 µM [2]: 100%
- remaining binding at 1 µM (KIT-autoinhibited): 83%
- remaining binding at 1 µM (LKB1): 91%
- remaining binding at 1 µM (LTK): 100%
- remaining binding at 1 µM (MAP4K2): 98%
- remaining binding at 1 µM (MAP4K4): 97%
- remaining binding at 1 µM (MAP4K5): 100%
- remaining binding at 1 µM (MET(M1250T)): 100%
- remaining binding at 1 µM (MKNK2): 98%
- remaining binding at 1 µM (NIK): 100%
- remaining binding at 1 µM (PFTK1): 100%
- remaining binding at 1 µM (PIK3CB): 100%
- remaining binding at 1 µM (RIOK1): 66%
- remaining binding at 1 µM (S6K1): 100%
- remaining binding at 1 µM (STK35): 100%
